Laboratory results taken from paper PMC6686156, “Discovery of Sustainable Drugs for Neglected Tropical Diseases: Cashew Nut Shell Liquid (CNSL)‐Based Hybrids Target Mitochondrial Function and ATP Production in Trypanosoma brucei” (Chemmedchem, 2019).

Assays:
[1] = system: T. b. brucei 427WT bloodstream trypomastigotes; assay: Transmission electron microscopy on T. b. brucei; type: cell-based, Trypanosoma brucei brucei; conditions: 1×EC50; 4 h exposure
Procedure: Transmission electron microscopy assay on T. b. brucei and HFF cells: TEM of bloodstream trypomastigotes (427WT) and of HFF was performed essentially as previously described.52 Briefly, cell cultures were adjusted to 2.5×10^6 cells mL^−1 and incubated in the presence or absence of test compounds at EC50. Cells were fixed overnight at 4 °C in 2.5 % glutaraldehyde and 4 % paraformaldehyde in 0.1 M phosphate buffer (pH 7.4). Samples were washed with 0.1 M phosphate buffer (pH 7.4), post‐fixed in 1 % osmium tetroxide for 1 h on ice, and washed with the phosphate buffer. Cells were next incubated in 0.5 % uranyl acetate solution for 30 min, washed with distilled water and dehydrated in increasing concentrations of acetone (30, 50, 70, 90 and 100 %).

[2] = Cytotoxicity assay on human foreskin fibroblast (HFF), resazurin; type: cell-based; conditions: human foreskin fibroblast (HFF) cells, tested up to 200 μM, read-out: HFF cytotoxic activity (EC50)
Procedure: Cytotoxicity assay on human foreskin fibroblast (HFF): Toxicity of test compounds to mammalian cells was carried out using the resazurin assay previously described31 with slight modifications as follows. HFF cells were grown in a culture medium containing 500 mL of Dulbecco's modified Eagle's medium (DMEM; Sigma), 50 mL newborn calf serum (NBCS; Gibco), 5 mL penicillin/streptomycin (Gibco), and 5 mL of L‐Glutamax ([…], Gibco), at 37 °C and 5 % CO2 in vented flasks and passaged at 80–85 % of confluence. For the cytotoxicity assay, cells were suspended at 3×10^5 cells mL^−1 and 100 μL aliquots were added to each well of a 96‐well plate. The plate was incubated at 37 °C and 5 % CO2 for 24 h to allow cell adhesion. Serial test compounds dilution was performed in a different 96‐well plate and 100 μL of each dilution was transferred to each well containing cells, resulting in exposure of cells to 200–0.2 μM of test compound. Phenylarsine oxide (Sigma–Aldrich) was used as positive control and drug‐free incubation as negative control. The plates were incubated at 37 °C and 5 % CO2 for an additional 30 h, at which point 10 μL of resazurin solution ([…] in PBS) was added, followed by a final incubation for 24 h. The plates were read and the data analyzed as described above for the trypanosome assay.

[3] = system: T. b. brucei ISMR1; assay: In vitro drug susceptibility assay (resazurin), dyskinetoplastic ISMR1 strain; type: cell-based, Trypanosoma brucei brucei; conditions: isometamidium-resistant line
Procedure: Organisms and culture media: Only bloodstream trypomastigotes of T. b. brucei were used throughout this study. […] Parasites were cultured in vented flasks at 37 °C and 5 % CO2 atmosphere and they were passaged every 3 days. Bloodstream forms of T. congolense savannah‐type strain IL3000 were cultured in basal MEM medium, supplemented by 10 % fresh goat serum, 14 μL of β‐mercaptoethanol, 800 μL of 200 mM glutamine solution, and 10 mL of penicillin/streptomycin solution per liter of medium (pH 7.3).48 T. congolense were cultured in six‐well plates at 34 °C and 5 % CO2.
In brief, the assays were performed in 96‐well plates with 2×10^5 cells per well for T. b. brucei or 5×10^5 cells per well for T. congolense, in their respective culture media. First, 200 μL of test compounds’ solutions (400 μM, in T. brucei or T. congolense medium as appropriate) was added to the first well of each 12‐well row, from which doubling dilutions were conducted over one row per test compound. […] Fluorescence was detected using a FLUOstar Optima (BMG Labtech, Durham, NC, USA) at wavelength of 540 nm (excitation), 590 nm (emission). EC50 values were calculated by nonlinear regression using an equation for a sigmoidal dose–response curve with variable slope using Prism 5.0 (GraphPad Software Inc., San Diego, CA, USA).

[4] = system: HFF cells; assay: ATP assay on HFF cells; type: cell-based, human; conditions: 22 at 200 μM, oligomycin 2 μg/mL; 0, 4, 8 h
Procedure: ATP assay on T. b. brucei and HFF cells: Changes in cellular ATP levels due to the exposure of trypanosomes to the test compounds (0.5×EC50) were monitored using the Molecular Probes ATP Determination Kit (A22066, Invitrogen Detection Technologies), based on the luciferin–luciferase bioluminescent enzymatic reaction. Bloodstream trypomastigote cultures of T. brucei s427WT were incubated with and without test compound, and, at each predetermined incubation time, 10^7 cells of each sample were transferred into a microfuge tube and centrifuged at 2000×g for 10 min at 4 °C. The pellet was washed twice with 1 mL of 50 mM Tris⋅HCl (pH 7.4) containing 0.1 mM DTT, and then resuspended in 200 μL of the same buffer. […] ATP levels were quantified using the contents of the kit following the manufacturer's instructions; 90 μL of standard reaction solution was added to each well of a 96‐well plate and the background luminescence was recorded in a FLUOstar OPTIMA fluorimeter; 10 μL of each sample was then added to each well. The plate was incubated at 28 °C for 15 min and the luminescence was measured, including a standard curve with an ATP concentration ranging from 1 nM to 1 μM to allow the calculation of the ATP concentrations in each sample. The ATP content was measured at 0, 0.5, 1, 2, 4, 8 and 12 h of incubation with test sample. […]

COc1cccc2c1C(=O)C=C(Oc1cccc(CCCCCCCCO)c1)C2=O [Compound 20, 2‐(3‐(8‐Hydroxyoctyl)phenoxy)‐5‐methoxynaphthalene‐1,4‐dione]
ultrastructure by TEM in trypanosomes [1]: some mitochondria presented an irregular shape
EC50 at 54 h [2]: > 200 µM
EC50 in ISMR1 relative to 427WT tested in parallel [3]: did not show a significant increase in the EC50 values

O=C1C(Oc2cccc(CCCCCCCCO)c2)=CC(=O)c2c(O)cccc21 [Compound 22, 5‐Hydroxy‐2‐(3‐(8‐hydroxyoctyl)phenoxy)naphthalene‐1,4‐dione]
effect on cellular ATP levels of HFF cells [4]: only a very minor effect on cellular ATP levels
ultrastructure by TEM in trypanosomes [1]: mitochondrial damage but no other ultrastructural changes
EC50 at 54 h [2]: > 200 µM
EC50 in ISMR1 relative to 427WT tested in parallel [3]: did not show a significant increase in the EC50 values
